Results taken from US9434743B2, “Indazole derivatives” (TAKEDA PHARMACEUTICAL COMPANY LIMITED, priority 2012, dated 2016).

What was measured:
human MetAP2 enzyme [1] = molecular target: T1, human MetAP2 enzyme (Homo sapiens, UniProt P50579); assay: MetAP2 enzyme assay, enzyme complexed with cobalt ions; details: MetAP2 Co pIC50, MetAP2 enzyme complexed with cobalt ions; Met-AMC substrate at Km
Experimental: DNA encoding the full-length sequence of human MetAP2 enzyme is amplified by PCR and cloned into a pFastBac expression vector (Invitrogen). Recombinant baculovirus incorporating the MetAP2 construct is generated by transposition using the Bac-to-Bac system (Invitrogen). The expression of recombinant protein is carried out by infection of Spodoptera frugiperda Sf9 cells (Invitrogen) in 5 L Wave Bioreactors (Wave Biotech). Recombinant protein is isolated from cellular extracts by binding to an SP Hitrap Fast Flow or SP Sepharose (Sigma) column, and the protein is eluted using a NaCl gradient. Partially purified extracts of MetAP2 are further purified by an AKTA FPLC over a Superdex-200 column (GE). The purity of MetAP2 protein is determined on denaturing SDS-PAGE gel.
The results for each well are expressed as percent inhibition and calculated using the equation:

human MetAP2 enzyme [2] = molecular target: T1, human MetAP2 enzyme; assay: MetAP2 enzyme assay, enzyme complexed with manganese ions; details: MetAP2 Mn pIC50, MetAP2 enzyme complexed with manganese ions; Met-AMC substrate at Km

T1 sequence (P50579 whole entry): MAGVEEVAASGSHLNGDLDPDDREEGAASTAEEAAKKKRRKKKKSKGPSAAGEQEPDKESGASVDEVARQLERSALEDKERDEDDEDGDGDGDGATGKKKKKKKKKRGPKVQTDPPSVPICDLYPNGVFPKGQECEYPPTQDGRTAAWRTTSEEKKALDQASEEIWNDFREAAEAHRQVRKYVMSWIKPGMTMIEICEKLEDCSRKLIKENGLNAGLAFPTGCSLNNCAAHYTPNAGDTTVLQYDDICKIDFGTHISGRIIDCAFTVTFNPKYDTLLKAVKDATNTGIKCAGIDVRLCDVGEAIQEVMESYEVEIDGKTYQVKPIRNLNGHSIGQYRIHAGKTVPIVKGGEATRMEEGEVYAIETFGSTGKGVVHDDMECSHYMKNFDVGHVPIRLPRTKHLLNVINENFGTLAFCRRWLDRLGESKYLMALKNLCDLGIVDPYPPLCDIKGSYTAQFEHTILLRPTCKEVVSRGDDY

Row | SMILES | IC50 (human MetAP2 enzyme [1]) [nM] | IC50 (human MetAP2 enzyme [2]) [nM]
1 | FC(F)(F)c1cc(-c2cnn(Cc3cccnc3)c2)c2cn[nH]c2c1 [Example 96, 4-(1-(pyridin-3-ylmethyl)-1H-pyrazol-4-yl)-6-(trifluoromethyl)-1H-indazole] | 39.8 | 5.01
2 | CNC(=O)c1ccc(-c2cc(C(F)(F)F)cc3[nH]ncc23)cn1 [Example 97, N-methyl-5-(6-(trifluoromethyl)-1H-indazol-4-yl)picolinamide] | 50.1 | 2.51
3 | FC(F)(F)c1cc(-c2cccnc2OC2CCCC2)c2cn[nH]c2c1 [Example 98, 4-(2-(cyclopentyloxy)pyridin-3-yl)-6-(trifluoromethyl)-1H-indazole] | 39.8 | 15.8
4 | FC(F)(F)c1cc(-c2cccnc2OCc2ccccc2)c2cn[nH]c2c1 [Example 99, 4-(2-(benzyloxy)pyridin-3-yl)-6-(trifluoromethyl)-1H-indazole] | 631 | 39.8
5 | FC(F)(F)COc1ncccc1-c1cc(C(F)(F)F)cc2[nH]ncc12 [Example 100, 4-(2-(2,2,2-trifluoroethoxy)pyridin-3-yl)-6-(trifluoromethyl)-1H-indazole] | 200 | 15.8
6 | FC(F)(F)c1cc(-c2cccc3ncccc23)c2cn[nH]c2c1 [Example 101, 5-(6-(trifluoromethyl)-1H-indazol-4-yl)quinoline] | 31.6 | 10
7 | CNC(=O)c1ccc(F)cc1-c1cc(C(F)(F)F)cc2[nH]ncc12 [Example 102, 4-fluoro-N-methyl-2-(6-(trifluoromethyl)-1H-indazol-4-yl)benzamide] | 631 | 79.4
8 | CS(=O)(=O)c1cccc(-c2cc(C(F)(F)F)cc3[nH]ncc23)c1 [Example 103, 4-(3-(methylsulfonyl)phenyl)-6-(trifluoromethyl)-1H-indazole] | 50.1 | 6.31
9 | CNS(=O)(=O)c1cccc(-c2cc(C(F)(F)F)cc3[nH]ncc23)c1 [Example 104, N-methyl-3-(6-(trifluoromethyl)-1H-indazol-4-yl)benzenesulfonamide] | 316 | 39.8
10 | CS(=O)(=O)c1cncc(-c2cc(C(F)(F)F)cc3[nH]ncc23)c1 [Example 105, 4-(5-(methylsulfonyl)pyridin-3-yl)-6-(trifluoromethyl)-1H-indazole] | 316 | 10
11 | OCCc1cccc(-c2cc(C(F)(F)F)cc3[nH]ncc23)c1 [Example 106, 2-(3-(6-(trifluoromethyl)-1H-indazol-4-yl)phenyl)ethanol] | 158 | 12.6
12 | FC(F)(F)c1cc(-c2ccc3scnc3c2)c2cn[nH]c2c1 [Example 107, 5-(6-(trifluoromethyl)-1H-indazol-4-yl)benzo[d]thiazole] | 31.6 | 5.01
13 | CN(C)S(=O)(=O)c1cccc(-c2cc(C(F)(F)F)cc3[nH]ncc23)c1 [Example 108, N,N-dimethyl-3-(6-(trifluoromethyl)-1H-indazol-4-yl)benzenesulfonamide] | 79.4 | 12.6
14 | O=C(NCCO)c1ccc(-c2cc(C(F)(F)F)cc3[nH]ncc23)cc1F [Example 109, 2-fluoro-N-(2-hydroxyethyl)-4-(6-(trifluoromethyl)-1H-indazol-4-yl)benzamide] | 50.1 | 3.16

Further lines, results first:

Row | IC50 (human MetAP2 enzyme [1]) [nM] | IC50 (human MetAP2 enzyme [2]) [nM] | SMILES
15 | 63.1 | 3.98 | NC(=O)c1cc(-c2cc(C(F)(F)F)cc3[nH]ncc23)ccc1F [Example 110, 2-fluoro-5-(6-(trifluoromethyl)-1H-indazol-4-yl)benzamide]
16 | 50.1 | 15.8 | FC(F)(F)c1cc(-c2cncc3ccccc23)c2cn[nH]c2c1 [Example 111, 4-(6-(trifluoromethyl)-1H-indazol-4-yl)isoquinoline]
17 | 50.1 | 12.6 | FC(F)(F)c1cc(-c2ccnc3ccccc23)c2cn[nH]c2c1 [Example 112, 4-(6-(trifluoromethyl)-1H-indazol-4-yl)quinoline]
18 | 20 | 7.94 | COc1ccc(-c2cc(C(F)(F)F)cc3[nH]ncc23)c2cccnc12 [Example 113, 8-methoxy-5-(6-(trifluoromethyl)-1H-indazol-4-yl)quinoline]
19 | 50.1 | 6.31 | CNC(=O)c1ccc(F)c(-c2cc(C(F)(F)F)cc3[nH]ncc23)c1 [Example 114, 4-fluoro-N-methyl-3-(6-(trifluoromethyl)-1H-indazol-4-yl)benzamide]
20 | 158 | 10 | CN(C)C(=O)c1cc(F)cc(-c2cc(C(F)(F)F)cc3[nH]ncc23)c1 [Example 115, 3-fluoro-N,N-dimethyl-5-(6-(trifluoromethyl)-1H-indazol-4-yl)benzamide]
21 | 39.8 | 7.94 | FC(F)(F)c1cc(-c2cnc(N3CCCC3)nc2)c2cn[nH]c2c1 [Example 116, 4-(2-(pyrrolidin-1-yl)pyrimidin-5-yl)-6-(trifluoromethyl)-1H-indazole]
22 | 15.8 | 3.16 | CNC(=O)c1ccc(-c2cc(C(F)(F)F)cc3[nH]ncc23)cc1 [Example 117, N-methyl-4-(6-(trifluoromethyl)-1H-indazol-4-yl)benzamide]
23 | 39.8 | 6.31 | FC(F)(F)c1cc(-c2cnc(N3CCOCC3)nc2)c2cn[nH]c2c1 [Example 118, 4-(5-(6-(trifluoromethyl)-1H-indazol-4-yl)pyrimidin-2-yl)morpholine]
24 | 100 | 7.94 | CN(C)C(=O)c1ccc(-c2cc(C(F)(F)F)cc3[nH]ncc23)cc1 [Example 119, N,N-dimethyl-4-(6-(trifluoromethyl)-1H-indazol-4-yl)benzamide]
25 | 63.1 | 15.8 | Cc1nnc(-c2ccc(-c3cc(C(F)(F)F)cc4[nH]ncc34)cc2)o1 [Example 120, 2-methyl-5-(4-(6-(trifluoromethyl)-1H-indazol-4-yl)phenyl)-1,3,4-oxadiazole]
26 | 63.1 | 6.31 | CN(C)C(=O)c1cccc(-c2cc(C(F)(F)F)cc3[nH]ncc23)c1 [Example 121, N,N-dimethyl-3-(6-(trifluoromethyl)-1H-indazol-4-yl)benzamide]
27 | 39.8 | 12.6 | CN1CCOc2cc(-c3cc(C(F)(F)F)cc4[nH]ncc34)cnc21 [Example 122, 4-methyl-7-(6-(trifluoromethyl)-1H-indazol-4-yl)-3,4-dihydro-2H-pyrido[3,2-b][1,4]oxazine]
28 | 63.1 | 31.6 | COc1nccc(C)c1-c1cc(C(F)(F)F)cc2[nH]ncc12 [Example 123, 4-(2-methoxy-4-methylpyridin-3-yl)-6-(trifluoromethyl)-1H-indazole]
29 | 63.1 | 15.8 | COc1nccc(-c2cc(C(F)(F)F)cc3[nH]ncc23)c1Cl [Example 124, 4-(3-chloro-2-methoxypyridin-4-yl)-6-(trifluoromethyl)-1H-indazole]
30 | 158 | 31.6 | Cc1cc(S(=O)(=O)N(C)C)ccc1-c1cc(C(F)(F)F)cc2[nH]ncc12 [Example 125, N,N,3-trimethyl-4-(6-(trifluoromethyl)-1H-indazol-4-yl)benzenesulfonamide]
31 | 50.1 | 7.94 | Cc1cc(-c2cc(C(F)(F)F)cc3[nH]ncc23)n(C)n1 [Example 126, 4-(1,3-dimethyl-1H-pyrazol-5-yl)-6-(trifluoromethyl)-1H-indazole]
